Results reported in US9447085B2, “Iminothiadiazine dioxides containing a thioamide, amidine, or amide oxime group as BACE inhibitors, compositions, and their use” (Merck Sharp & Dohme Corp., priority 2012, dated 2016).

How the values were obtained:
[1] = target: purified human autoBACE-2 (Homo sapiens (Human), UniProt Q9Y5Z0); test: BACE-2 Assay (BACE-HTRF assay); format: biochemical; details: Ki calculated from IC50 using the Cheng-Prusoff equation; read-out: BACE2 Ki
Method: Inhibitor IC50s at purified human autoBACE-2 are determined in a time-resolved endpoint proteolysis assay that measures hydrolysis of the QSY7-[…]-Eu-amide FRET peptide substrate (BACE-HTRF assay). […] DMSO is present at 5% final concentration in the assay. Following laser excitation of sample wells at 320 nm, the fluorescence signal at 620 nm is collected for 400 ms following a 50 μs delay on a RUBYstar HTRF plate reader (BMG Labtechnologies). Raw RFU data is normalized to maximum (1.0 nM BACE/DMSO) and minimum (no enzyme/DMSO) RFU values. […] The Ki values are calculated from the IC50 using the Cheng-Prusoff equation.

[2] = target: soluble human BACE1 catalytic domain (Homo sapiens (Human), UniProt P56817); test: BACE1 HTRF FRET Assay; format: biochemical; details: for Ki: Ki calculated from IC50 using the Cheng-Prusoff equation
Source text: A homogeneous time-resolved FRET assay can be used to determine IC50 values for inhibitors of the soluble human BACE1 catalytic domain. This assay monitors the increase of 620 nm fluorescence that resulted from BACE1 cleavage of an APPswedish APP^swe mutant peptide FRET substrate (QSY7-[…]-Europium-amide). This substrate contains an N-terminal QSY7 moiety that serves as a quencher of the C-terminal Europium fluorophore (620 nm Em). In the absence of enzyme activity, 620 nm fluorescence is low in the assay and increased linearly over 3 hours in the presence of uninhibited BACE1 enzyme Inhibition of BACE1 cleavage of the QSY7-APP^swe-Eu substrate by inhibitors is manifested as a suppression of 620 nm fluorescence.
Reactions are initiated by addition of 10 μl of 600 nM QSY7-APP^swe-Eu substrate (200 nM final) to give a final reaction volume of 30 μl in a 384 well Nunc HTRF plate. The reactions are incubated at 30° C. for 1.5 hours. The 620 nm fluorescence is then read on a Rubystar HTRF plate reader (BMG Labtechnologies) using a 50 millisecond delay followed by a 400 millisecond acquisition time window Inhibitor IC50 values are derived from non-linear regression analysis of concentration response curves.

Sequence of soluble human BACE1 catalytic domain (P56817 75-416): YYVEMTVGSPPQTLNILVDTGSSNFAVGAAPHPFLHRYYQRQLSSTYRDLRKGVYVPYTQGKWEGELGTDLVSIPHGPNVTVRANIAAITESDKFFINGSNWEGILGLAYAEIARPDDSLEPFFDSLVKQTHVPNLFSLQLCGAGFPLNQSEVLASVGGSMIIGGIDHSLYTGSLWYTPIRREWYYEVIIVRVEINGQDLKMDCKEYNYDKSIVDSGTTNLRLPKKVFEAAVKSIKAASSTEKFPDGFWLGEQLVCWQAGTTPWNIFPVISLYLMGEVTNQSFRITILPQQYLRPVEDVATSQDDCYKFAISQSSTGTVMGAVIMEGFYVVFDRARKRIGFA
Sequence of purified human autoBACE-2 (Q9Y5Z0 63-473): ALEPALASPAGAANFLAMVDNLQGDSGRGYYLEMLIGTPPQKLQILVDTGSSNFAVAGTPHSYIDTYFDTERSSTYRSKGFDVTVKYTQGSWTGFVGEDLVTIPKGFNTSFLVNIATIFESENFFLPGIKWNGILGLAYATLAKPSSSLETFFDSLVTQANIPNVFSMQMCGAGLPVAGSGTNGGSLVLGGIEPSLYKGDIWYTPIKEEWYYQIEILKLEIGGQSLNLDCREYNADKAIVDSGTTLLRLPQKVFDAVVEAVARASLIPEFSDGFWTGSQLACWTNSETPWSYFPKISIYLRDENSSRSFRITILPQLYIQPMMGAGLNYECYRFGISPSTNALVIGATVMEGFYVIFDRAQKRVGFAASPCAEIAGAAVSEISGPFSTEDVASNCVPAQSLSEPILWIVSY

CN1C(=N)N[C@](C)(c2cc(NC(=S)c3ccc(Cl)cn3)ccc2F)CS1(=O)=O [Example 1]
Ki [1]: 1 nM
Ki [2]: 9.1 nM

COc1ccc(C(=S)Nc2ccc(F)c([C@]3(C)CS(=O)(=O)N(C)C(=N)N3)c2)nc1 [Example 2]
Ki [1]: 8 nM
Ki [2]: 57 nM

COCC(=S)Nc1ccc(F)c([C@]2(C)CS(=O)(=O)N(C)C(=N)N2)c1 [Example 3]
Ki [1]: 2 nM
Ki [2]: 152 nM

CN1C(=N)N[C@](C)(c2cc(NC(=S)C(F)F)ccc2F)CS1(=O)=O [Example 4]
Ki [1]: 7 nM
Ki [2]: 83 nM

CN1C(=N)N[C@](C)(c2cc(NC(=S)c3ccc(F)cn3)ccc2F)CS1(=O)=O [Example 4b]
Ki [1]: 2 nM
Ki [2]: 25 nM

COc1cnc(C(=S)Nc2ccc(F)c([C@]3(C)CS(=O)(=O)N(C)C(=N)N3)c2)cn1 [Example 4c]
Ki [1]: 4 nM
Ki [2]: 3 nM

CO/N=C(/Nc1ccc(F)c([C@]2(C)CS(=O)(=O)N(C)C(=N)N2)c1)c1ccc(OC)cn1 [Example 5]
Ki [1]: 1450 nM
inhibition at 10 µM ([2]; @ 10 uM): 47%

CO/N=C(/Nc1ccc(F)c([C@]2(C)CS(=O)(=O)N(C)C(=N)N2)c1)c1ccc(Cl)cn1 [Example 6]
Ki [1]: 58 nM
Ki [2]: 340 nM

CN1C(=N)N[C@](C)(c2cc(NC(=N)c3ccc(Br)cn3)ccc2F)CS1(=O)=O [Example 7]
Ki [1]: 148 nM
Ki [2]: 371 nM

CN1C(=N)N[C@](C)(c2cc(NC(=S)c3ccc(Cl)cn3)cc(F)c2F)CS1(=O)=O [Example 8]
Ki [1]: 2 nM
Ki [2]: 9 nM

COc1ccc(C(=S)Nc2cc(F)c(F)c([C@]3(C)CS(=O)(=O)N(C)C(=N)N3)c2)nc1 [Example 9]
Ki [1]: 15 nM
Ki [2]: 57 nM

COCC(=S)Nc1cc(F)c(F)c([C@]2(C)CS(=O)(=O)N(C)C(=N)N2)c1 [Example 10]
Ki [1]: 6 nM
Ki [2]: 188 nM

CN1C(=N)N[C@](C)(c2cc(NC(=S)C(F)F)cc(F)c2F)CS1(=O)=O [Example 11]
Ki [1]: 28 nM
Ki [2]: 95 nM

CN1C(=N)N[C@](C)(c2cc(NC(=S)c3ccc(F)cn3)cc(F)c2F)CS1(=O)=O [Example 12]
Ki [1]: 3 nM
Ki [2]: 17 nM

CN1C(=N)N[C@](C)(c2cc(NC(=S)c3ccc(C(F)(F)F)cn3)cc(F)c2F)CS1(=O)=O [Example 13]
Ki [1]: 21 nM
Ki [2]: 30 nM

COc1cnc(C(=S)Nc2cc(F)c(F)c([C@]3(C)CS(=O)(=O)N(C)C(=N)N3)c2)cn1 [Example 14]
Ki [1]: 18 nM
Ki [2]: 8 nM
